In PubChem BioAssay (NCI):
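How tested: cells in 96-well plates exposed to compound for 48 hours at five concentrations. TGI is the concentration that stops growth completely.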 Where a SMILES comes first, the peptide text is derived from it. [ ]: non-standard residue; d: D form. The star is where a group is joined. ξ: configuration not given here. NMeF = CN[CH](Cc1ccccc1)C(=O)O; ξNMe2Val = CC(C)C(C(=O)*)N(C)C; NMeV = CN[CH](C(=O)O)C(C)C; ξNMeV = CNC(C(=O)O)C(C)C; Boc = CC(C)(C)OC(=O)*; OBn = c1ccc(CO*)cc1; OtBu = CC(C)(C)O*

Key:
[1] = system: DMS 273 small cell lung; assay: NCI-60 cell line screen, 48 h
[2] = system: RXF-631 renal; assay: NCI-60 cell line screen, 48 h

Compound	TGI [1]	TGI [2]
CC(C)C(C(=O)N(C)[C@H](C(=O)N1CCC[C@H]1C(=O)N(C)[C@@H](Cc1ccccc1)C(=O)OCc1ccccc1)C(C)C)N(C)C(=O)[C@@H](NC(=O)OC(C)(C)C)C(C)C (stereo partly specified) (Boc-V[ξNMeV][NMeV]P[NMeF]-OBn)	> 31.6 µM	–
CCCCCCCCCCCC[N+]12CC[N+](C)(CC1)CC2	15.1 µM	–
CC(=O)OCC1OC(n2c(=S)n(-c3ccccc3)c(=O)c3cc(Br)ccc32)C(OC(C)=O)C1OC(C)=O (stereo unspecified)	> 100 µM	–
Cc1ccc(Nc2nc(-c3ccc(-c4ccc([N+](=O)[O-])cc4)o3)cs2)cc1	> 100 µM	–
CC(=O)Nc1ccc(/C=c2\sc3nnc(-c4cccnc4)n3c2=O)cc1	68.5 µM	55.2 µM
NC(=S)N1N=C2c3ccccc3CCC[C@H]2[C@@H]1c1ccccc1	11.3 µM	–
CC(C)C(C(=O)N(C)C(Cc1ccccc1)C(=O)N(C)C(C(=O)N(C)C(C(=O)N1CCCC1C(=O)OC(C)(C)C)C(C)C)C(C)C)N(C)C (stereo unspecified) (ξNMe2Val-[NMeF][NMeV][NMeV]P-OtBu; configuration not given here)	84.1 µM	–
COc1ccc(NC(=O)C(=O)Cc2ccc([N+](=O)[O-])c([N+](=O)[O-])c2CC(=O)C(=O)Nc2ccc(OC)cc2OC)c(OC)c1	> 100 µM	> 100 µM
CN(C)CCC[N+]1=Nc2cccc3cccc(c23)N1	59.5 µM	> 100 µM
Cc1ccc(NC(=O)C2C3CCC(O3)C2C(=O)O)cc1 (stereo unspecified)	> 100 µM	> 100 µM
N#COc1ccc(Oc2ccc(OC#N)cc2)cc1	–	> 100 µM
COc1ccc(C2=Nc3ccccc3N=C(SC)C2)cc1	> 100 µM	> 100 µM
CC12CCc3ccccc3C1=NNC(=O)C2 (stereo unspecified)	> 100 µM	–
Cc1ccc(S(=O)(=O)NNS(C)(=O)=O)cc1	> 100 µM	–
CCCCOC(=O)NC(=O)c1cn(CCCOC(=O)CCCCCCCCC(=O)OCCCn2cc(C(=O)NC(=O)OCCCC)c(=O)n(C)c2=O)c(=O)n(C)c1=O	> 100 µM	> 100 µM
COc1ccc([C@H]2CC3C(=O)N(c4ccc(OC)cc4)C(=O)C3c3[nH]c4ccccc4c32)cc1 (stereo partly specified)	> 100 µM	–
Brc1ccc(-c2cc3c(cc2C2SCCS2)OCO3)cc1	> 100 µM	–
CCN(CC)c1c(C)nnn1C1OC(COC(C)=O)C(OC(C)=O)C(OC(C)=O)C1OC(C)=O (stereo unspecified)	–	> 100 µM
CSC(C1c2ccccc2N(C)c2[nH]c(=O)n(C)c(=O)c21)S(=O)(=O)c1ccc(C)cc1 (stereo unspecified)	> 100 µM	–
CCO/C(O)=c1/s/c(=C(\C#N)c2nc3ccccc3[nH]2)n(-c2ccccc2)c1=N	> 100 µM	–
